Assay results: patent publication US10420831B2, “Inactivation of viruses by delipidation” (priority 2016, dated 2019)
Read-outs that look alike come from different tables or passages of the source. Marks after values point to notes of the source that are not given here.

How the values were obtained:
Assay type in all cases: cell-based
PRRSV-RESP strain = test: In vitro infectivity of PRRSV, plaque titration on Marc-145 cells; settings: for In Vitro Infectivity: 60 minutes at 37° C.
Experimental: The PRRSV are titrated for in vitro infectivity using the following procedure. Using the cell culture and transfer procedures above, Marc-145 cells are suspended in DMEM containing 10% FBS at a final density of 1.5×10^5 cell/mL. Two mL of the Marc-145 cell suspension are added to each well of a 6-well plate, and the plates are incubated overnight at 37° C. with 5% CO2. Virus samples are thawed in a 37° C. water bath, followed by centrifugation at 500×g for 10 minutes at 4° C. A 1/10 dilution series of viruses is prepared and stored at 4° C. until use, using EMEM as the dilution buffer.
When the Marc-145 cells are at least 90% confluent, the medium is removed, and 0.5 mL dilution buffer and 0.5 mL of the virus dilution are added into each well. For the negative control, 1.0 mL dilution buffer is used. The plates are gently shaken immediately after each dilution is added. Plates are incubated for 60-90 minutes at 37° C. in 5% CO2 and rocked every 15 minutes. Each well of each 6-well plate is then overlaid with 3 mL of a 1:4 mixture of 2.5% low melting point agarose in PBS solution and dilution buffer at 37° C. The plates are incubated at room temperature for 15 minutes to allow the overlay mixture to solidify, and then the plates are incubated at 37° C. with 5% CO2 for 96 hours.
Plaques are visualized using the following procedure. After the plaques are fully developed (96 hours post-infection), 1 mL 4% paraformaldehyde is added, and the plates are incubated at room temperature for 1 hour. Solubilized agarose is discarded, and 0.5 mL of 0.5% crystal violet is added to each well. The number of plaques is counted after 15 minutes of incubation with the crystal violet and converted to a titer based on the dilution factors.
Solvent and mock treatments are conducted according to the following procedure. One hundred μL aliquots of the concentrated PRRSV stock at about 1×10^9 PFU/mL are diluted into 900 μL PBS in Eppendorf tubes to achieve a final titer of 1.0-5.0×10^8 PFU/mL. […] Eppendorf tubes are then capped and sealed with parafilm. All the samples are secured in an SHZ-82 constant-temperature orbital air-bath shaker (Changzhou Guohua Appliance Co., China) preheated to 37° C. The solvent- and mock-treated samples are spun at an orbital rotation speed of 220 rpm at 37° C. for the desired time. The respective samples are spun in a micro-centrifuge for 1 minute, and the supernatants containing IFV are transferred to ultracentrifuge tubes. Tubes are centrifuged at 100,000×g (OPTIMA™ L-100XP centrifuge; Beckman Coulter, Inc., Indianapolis Ind.) for 30 minutes to pellet the PRRSV, and the supernatants are discarded. The PRRSV pellets are resuspended in 200 μL PBS and stored at −80° C. until further analyses.
The protein content of the delipidated and mock-treated PRRSV is determined using a BCA assay (PIERCE™ BCA Protein Assay Kit) according to the manufacturer's instructions. The cholesterol content also is determined using a cholesterol assay (Amplex® Red Cholesterol Assay Kit, Life Technologies, Grand Island, N.Y.) performed according to manufacturer's instruction. In vitro infectivity is measured using the same procedures as set forth above.
After ultracentrifugation, the mock-treated and delipidated samples are tested for in vitro infectivity in the Marc-145 cells, and protein and cholesterol contents are determined, using the procedures set forth above.

[1] = tested on: human influenza virus H1N1 A/WSN/33 strain; settings: 50 mM MBCD
PRRSV strain ND99-14 = test: Inactivation kinetics of PRRSV, live virus TCID50 on MARC145 cells
Experimental: Inactivation kinetics experiments were conducted using PRRSV strain ND99-14, described in application U.S. Ser. No. 62/296,658, filed Feb. 18, 2016. […] Room temperature is between about 20° C. and about 25° C., and optimally between about 22° C. and about 24° C.
[…] […] Aliquots for each time point were stored at 4° C. and −70° C. until further use.
After the 24 hour sample was collected, virus was transferred to a new container. […] […] […] Aliquots for each time point were stored at 4° C. and −70° C. until further use.
Ten-fold serial dilutions (10^−1-10^−9) of mock inactivated and inactivated virus were added to MARC145 cells cultured on 96 well plates. The plates were incubated at 37° C. and 5% CO2 for 96 hours to allow live virus to infect cells. Virus replication was determined by observation of cytopathic effect (CPE) due to virus infection of the MARC145 cells. Each well containing a virus dilution was scored either positive or negative with regards to CPE and the resulting numbers of positive or negatice wells for each dilution were used to determine the TCID50/mL using the Reed-Muench TCID50 calculation. The mock inactivated virus was treated to the same media and temperature conditions as the inactivated virus without the addition of the inactivation agent.

PRRSV strain SD 11-21 = test: Inactivation of vaccine virus stock, TCID50 virus titration; settings: PRRSV SD 11-21, final 30 mM MBCD in two additions, 48 hours at room temperature

## methyl β-cyclodextrin [MBCD]
PRRSV-RESP strain; 100 mM MBCD for 90 minutes
  titer of delipidated PRRSV sample: under the limit of detection
PRRSV-RESP strain; PRRSV-RESP, 5 mM MBCD
  In Vitro Infectivity: 1.4 × 10^7 PFU/mL
PRRSV-RESP strain; PRRSV-RESP, 10 mM MBCD
  In Vitro Infectivity: 7.0 × 10^6 PFU/mL
PRRSV-RESP strain; PRRSV-RESP, 20 mM MBCD
  In Vitro Infectivity: 2.8 × 10^6 PFU/mL
PRRSV-RESP strain; PRRSV-RESP, 30 mM MBCD
  In Vitro Infectivity: 1.2 × 10^5 PFU/mL
PRRSV-RESP strain; PRRSV-RESP, 50 mM MBCD, 60 min at 37° C.
  PRRSV infectivity reduced: about 380 fold
PRRSV-RESP strain; PRRSV-RESP, 50 mM MBCD
  In Vitro Infectivity: 4.2 × 10^4 PFU/mL
[1]; 37° C., 30 minutes, […]
  IFV infectivity reduced, compared to the mock-treatment: 2250 fold
[1]; IFV, 37° C., 30 minutes
  PFU/mL: 4.0 × 10^5 PFU/mL
[1]; IFV, 45 minute treatment
  less infectious in vitro, compared to the mock treatment: over 10,000 fold
[1]; IFV, end-over-end rotation at 37° C. for 45 minutes
  PFU/mL: 1.0 × 10^3 PFU/mL
PRRSV strain ND99-14; 20 mM MBCD, after 15 minutes of incubation
  live virus reduced: approximately 2.5 logs
PRRSV strain ND99-14; 20 mM MBCD, room temperature, hour 0.25, samples stored at 4° C.
  PRRS virus titer: 5.8^a Log10 TCID50/mL
PRRSV strain ND99-14; 20 mM MBCD, room temperature, hour 0.25, samples stored at −70° C.
  PRRS virus titer: 3.3 Log10 TCID50/mL
PRRSV strain ND99-14; 20 mM MBCD, room temperature, hour 4, samples stored at 4° C.
  PRRS virus titer: 5.8 Log10 TCID50/mL
PRRSV strain ND99-14; 20 mM MBCD, room temperature, hour 8, samples stored at 4° C.
  PRRS virus titer: 5.9 Log10 TCID50/mL
PRRSV strain ND99-14; 20 mM MBCD, room temperature, hour 8, samples stored at −70° C.
  PRRS virus titer: 2.8 Log10 TCID50/mL
PRRSV strain ND99-14; 20 mM MBCD, room temperature, hour 12, samples stored at 4° C.
  PRRS virus titer: 5.6 Log10 TCID50/mL
PRRSV strain ND99-14; 20 mM MBCD, room temperature, hour 12, samples stored at −70° C.
  PRRS virus titer: 3.2 Log10 TCID50/mL
PRRSV strain ND99-14; 20 mM MBCD, room temperature, hour 16, samples stored at 4° C.
  PRRS virus titer: 5.6 Log10 TCID50/mL
PRRSV strain ND99-14; 20 mM MBCD, room temperature, hour 16, samples stored at −70° C.
  PRRS virus titer: 3.2 Log10 TCID50/mL
PRRSV strain ND99-14; 20 mM MBCD, room temperature, hour 20, samples stored at 4° C.
  PRRS virus titer: 5.6 Log10 TCID50/mL
PRRSV strain ND99-14; 20 mM MBCD, room temperature, hour 20, samples stored at −70° C.
  PRRS virus titer: 3.4 Log10 TCID50/mL
PRRSV strain ND99-14; 20 mM MBCD, room temperature, hour 24, samples stored at 4° C.
  PRRS virus titer: 5.6 Log10 TCID50/mL
PRRSV strain ND99-14; 20 mM MBCD, room temperature, hour 24, samples stored at −70° C.
  PRRS virus titer: 3.6 Log10 TCID50/mL
PRRSV strain ND99-14; 40 mM MBCD (second 20 mM added at 24 h), hour 30, samples stored at 4° C.
  PRRS virus titer: 0 Log10 TCID50/mL
PRRSV strain ND99-14; 40 mM MBCD (second 20 mM added at 24 h), hour 30, samples stored at −70° C.
  PRRS virus titer: 0 Log10 TCID50/mL
PRRSV strain ND99-14; 40 mM MBCD (second 20 mM added at 24 h), hour 36, samples stored at 4° C.
  PRRS virus titer: 0 Log10 TCID50/mL
PRRSV strain ND99-14; 40 mM MBCD (second 20 mM added at 24 h), hour 36, samples stored at −70° C.
  PRRS virus titer: 0 Log10 TCID50/mL
PRRSV strain ND99-14; 40 mM MBCD (second 20 mM added at 24 h), hour 42, samples stored at 4° C.
  PRRS virus titer: 0 Log10 TCID50/mL
PRRSV strain ND99-14; 40 mM MBCD (second 20 mM added at 24 h), hour 42, samples stored at −70° C.
  PRRS virus titer: 0 Log10 TCID50/mL
PRRSV strain ND99-14; 40 mM MBCD (second 20 mM added at 24 h), hour 48, samples stored at 4° C.
  PRRS virus titer: 0 Log10 TCID50/mL
PRRSV strain ND99-14; 40 mM MBCD (second 20 mM added at 24 h), hour 48, samples stored at −70° C.
  PRRS virus titer: 0 Log10 TCID50/mL
PRRSV strain ND99-14; 40 mM MBCD (second 20 mM added at 24 h), hour 56, samples stored at 4° C.
  PRRS virus titer: 0 Log10 TCID50/mL
PRRSV strain ND99-14; 40 mM MBCD (second 20 mM added at 24 h), hour 56, samples stored at −70° C.
  PRRS virus titer: 0 Log10 TCID50/mL
PRRSV strain ND99-14; 40 mM MBCD (second 20 mM added at 24 h), hour 64, samples stored at 4° C.
  PRRS virus titer: 0 Log10 TCID50/mL
PRRSV strain ND99-14; 40 mM MBCD (second 20 mM added at 24 h), hour 64, samples stored at −70° C.
  PRRS virus titer: 0 Log10 TCID50/mL
PRRSV strain ND99-14; 40 mM MBCD (second 20 mM added at 24 h), hour 72, samples stored at 4° C.
  PRRS virus titer: 0 Log10 TCID50/mL
PRRSV strain ND99-14; 40 mM MBCD (second 20 mM added at 24 h), hour 72, samples stored at −70° C.
  PRRS virus titer: 0 Log10 TCID50/mL
PRRSV strain ND99-14; 40 mM MBCD (second 20 mM added at 24 h), hour 84, samples stored at 4° C.
  PRRS virus titer: 0 Log10 TCID50/mL
PRRSV strain ND99-14; 40 mM MBCD (second 20 mM added at 24 h), hour 84, samples stored at −70° C.
  PRRS virus titer: 0 Log10 TCID50/mL
PRRSV strain ND99-14; 40 mM MBCD (second 20 mM added at 24 h), hour 96, samples stored at 4° C.
  PRRS virus titer: 0 Log10 TCID50/mL
PRRSV strain ND99-14; 40 mM MBCD (second 20 mM added at 24 h), hour 96, samples stored at −70° C.
  PRRS virus titer: 0 Log10 TCID50/mL
PRRSV strain ND99-14; 40 mM MBCD added in a 2 step process
  titer of PRRS virus that could be inactivated: at least 8 log10 TCID50/mL
PRRSV strain ND99-14; second addition of 20 mM MBCD at 24 hours, next time point (30 hours)
  virus level after second addition of MBCD (in words): undetectable levels
PRRSV strain ND99-14; time point samples with detectable live virus
  less virus when stored at −70° C. versus 4° C.: at least 100 fold
PRRSV strain SD 11-21
  live virus in MBCD-inactivated virus solution: no live virus was detected
